Among the data in ChEMBL document CHEMBL4622851, “Cytotoxicity of 4-substituted quinoline derivatives: Anticancer and antileishmanial potential” (Bioorg Med Chem, 2020) are Activity, EC50 and IC50 values, retold here.

Activity calls are given as the source filed them. No cut-off for these calls is given here.

Sequence of Cysteine proteinase B (P36400 whole entry): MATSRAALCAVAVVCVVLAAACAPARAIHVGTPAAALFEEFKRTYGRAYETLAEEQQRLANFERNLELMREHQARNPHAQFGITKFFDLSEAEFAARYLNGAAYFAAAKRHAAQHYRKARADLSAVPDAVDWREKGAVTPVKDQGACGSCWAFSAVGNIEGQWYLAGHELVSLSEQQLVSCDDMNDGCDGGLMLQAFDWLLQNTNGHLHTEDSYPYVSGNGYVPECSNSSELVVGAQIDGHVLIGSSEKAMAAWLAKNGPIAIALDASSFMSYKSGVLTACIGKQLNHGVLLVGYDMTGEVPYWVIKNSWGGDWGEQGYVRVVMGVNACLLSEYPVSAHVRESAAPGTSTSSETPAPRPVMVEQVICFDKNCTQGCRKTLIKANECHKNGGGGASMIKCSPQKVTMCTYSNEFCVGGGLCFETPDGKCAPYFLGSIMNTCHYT

The first test has as its system SK-MEL-147. The test can be described thus: Cytotoxicity against human SK-MEL-147 cells assessed as reduction in cell viability at 50 and 100 uM after 24 hrs by MTT assay.
Conditions: not given
The format is functional, cell-based.
As to `CCOC(=O)c1cc([Se]c2ccc3cc(OC)ccc3c2)c2cc(Cl)ccc2n1`, the result was Active.

`CCOC(=O)c1cc(C#Cc2ccc(N)cc2)c2cc(OC)ccc2n1`: the result was Active.

In the case of `COc1ccc2nc(-c3c(Cl)cccc3Cl)cc([Se]c3ccccc3)c2c1`, the outcome was Active.

In the case of `CCOC(=O)c1cc([Te]c2ccccc2)c2cc(OC)ccc2n1`, the outcome was Active.

Consider `CCOC(=O)c1cc([Se]c2ccccc2)c2ccccc2n1`, for which the result was Active.

On to `CCOC(=O)c1cc([Se]Cc2ccccc2)c2cc(Cl)ccc2n1`, for which the outcome was Active.

Turning to `CCOC(=O)c1cc([Se]c2ccccc2)c2cc(OC)ccc2n1`, the result was Active.

Regarding `CCOC(=O)c1cc(C#Cc2ccccc2[N+](=O)[O-])c2cc(OC)ccc2n1`, the result was Active.

Regarding `CCOC(=O)c1cc(C#CCCO)c2cc(OC)ccc2n1`, the outcome was Active.

For the compound `CCOC(=O)c1cc([Se]c2ccccc2)c2cc(Br)ccc2n1`, the outcome was Active.

Turning to `COc1ccc2nc(-c3cccs3)cc([Se]c3ccccc3)c2c1`, the result was Active.

The test system of the next test is Jurkat. The test can be described thus: Cytotoxicity against human Jurkat cells assessed as reduction in cell viability at 50 and 100 uM after 24 hrs by MTT assay.
Conditions: not given
The format is functional, cell-based.
Regarding `CCOC(=O)c1cc([Se]c2ccc3cc(OC)ccc3c2)c2cc(Cl)ccc2n1`, the result was Active.

Turning to `CCOC(=O)c1cc(C#Cc2ccc(N)cc2)c2cc(OC)ccc2n1`, the outcome was Active.

As to `COc1ccc2nc(-c3c(Cl)cccc3Cl)cc([Se]c3ccccc3)c2c1`, the result was Active.

For `CCOC(=O)c1cc([Te]c2ccccc2)c2cc(OC)ccc2n1`, the outcome was Active.

For `CCOC(=O)c1cc([Se]c2ccccc2)c2ccccc2n1`, the result was Active.

`CCOC(=O)c1cc([Se]Cc2ccccc2)c2cc(Cl)ccc2n1`: the result was Active.

Take `CCOC(=O)c1cc([Se]c2ccccc2)c2cc(OC)ccc2n1`: the outcome was Active.

Turning to `CCOC(=O)c1cc(C#Cc2ccccc2[N+](=O)[O-])c2cc(OC)ccc2n1`, the outcome was Active.

Take `CCOC(=O)c1cc(C#CCCO)c2cc(OC)ccc2n1`: the result was Active.

`CCOC(=O)c1cc([Se]c2ccccc2)c2cc(Br)ccc2n1`: the outcome was Active.

With `COc1ccc2nc(-c3cccs3)cc([Se]c3ccccc3)c2c1`, the outcome was Active.

The subject of a further test is SK-MEL-147. The test can be described thus: Cytotoxicity against human SK-MEL-147 cells assessed as reduction in cell viability after 24 hrs by MTT assay. To be noted: SK-MEL-147, 24 h. The format is functional, cell-based.
As to `CCOC(=O)c1cc([Se]c2ccc3cc(OC)ccc3c2)c2cc(Cl)ccc2n1`, the half-maximal effective concentration (EC50) worked out at 16.2 µM.

Take `CCOC(=O)c1cc(C#Cc2ccc(N)cc2)c2cc(OC)ccc2n1`: the EC50 amounted to 8.8 µM.

For `COc1ccc2nc(-c3c(Cl)cccc3Cl)cc([Se]c3ccccc3)c2c1`, the EC50 is greater than 150 µM.

Take `CCOC(=O)c1cc([Te]c2ccccc2)c2cc(OC)ccc2n1`: the EC50 is 128 µM.

As to `CCOC(=O)c1cc([Se]c2ccccc2)c2ccccc2n1`, the EC50 was 86.3 µM.

Take `CCOC(=O)c1cc([Se]Cc2ccccc2)c2cc(Cl)ccc2n1`: the concentration for a half-maximal effect (EC50) was found to be 84.5 µM.

`CCOC(=O)c1cc([Se]c2ccccc2)c2cc(OC)ccc2n1`: the EC50 was 33 µM.

Regarding `CCOC(=O)c1cc(C#Cc2ccccc2[N+](=O)[O-])c2cc(OC)ccc2n1`, the EC50 was greater than 150 µM.

As for `CCOC(=O)c1cc(C#CCCO)c2cc(OC)ccc2n1`, the EC50 is greater than 150 µM.

As to `CCOC(=O)c1cc([Se]c2ccccc2)c2cc(Br)ccc2n1`, the EC50 is 12.4 µM.

For the compound `COc1ccc2nc(-c3cccs3)cc([Se]c3ccccc3)c2c1`, the EC50 is greater than 150 µM.

For a further test, the system named is Jurkat. The experiment in a line: Cytotoxicity against human Jurkat cells assessed as reduction in cell viability after 24 hrs by MTT assay. The format is functional, cell-based.
Conditions: not given
For the compound `CCOC(=O)c1cc([Se]c2ccc3cc(OC)ccc3c2)c2cc(Cl)ccc2n1`, the 50% effective concentration (EC50) turned out to be 29.2 µM.

As for `CCOC(=O)c1cc(C#Cc2ccc(N)cc2)c2cc(OC)ccc2n1`, the EC50 was found to be 61 µM.

Consider `COc1ccc2nc(-c3c(Cl)cccc3Cl)cc([Se]c3ccccc3)c2c1`, for which the EC50 was 17 µM.

On to `CCOC(=O)c1cc([Te]c2ccccc2)c2cc(OC)ccc2n1`, for which the EC50 came out at 77.4 µM.

Take `CCOC(=O)c1cc([Se]c2ccccc2)c2ccccc2n1`: the EC50 was found to be 98.2 µM.

Regarding `CCOC(=O)c1cc([Se]Cc2ccccc2)c2cc(Cl)ccc2n1`, the concentration for a half-maximal effect (EC50) turned out to be 88.5 µM.

`CCOC(=O)c1cc([Se]c2ccccc2)c2cc(OC)ccc2n1`: the EC50 was 102 µM.

As to `CCOC(=O)c1cc(C#Cc2ccccc2[N+](=O)[O-])c2cc(OC)ccc2n1`, the EC50 came to 54.7 µM.

In the case of `CCOC(=O)c1cc(C#CCCO)c2cc(OC)ccc2n1`, the EC50 is 123 µM.

For the compound `CCOC(=O)c1cc([Se]c2ccccc2)c2cc(Br)ccc2n1`, the EC50 worked out at 20.8 µM.

For `COc1ccc2nc(-c3cccs3)cc([Se]c3ccccc3)c2c1`, the 50% effective concentration (EC50) was found to be 99.8 µM.

Another test has as its target Cysteine proteinase B (Leishmania mexicana, UniProt P36400). The test can be described thus: Inhibition of Leishmania mexicana rCPB2.8 using Z-FR-AMC as substrate by spectrofluorometric analysis.
Conditions: not given
With `CCOC(=O)c1cc([Se]c2ccccc2)c2ccccc2n1`, half-maximal inhibition (IC50) required 54 µM. This lies in the double-digit micromolar range.

System in the next test: not listed separately
The test can be described thus: Inhibition of Leishmania mexicana rCPB3.0 using Z-FR-AMC as substrate by spectrofluorometric analysis.
Conditions: not given
`CCOC(=O)c1cc([Se]c2ccc3cc(OC)ccc3c2)c2cc(Cl)ccc2n1`: the IC50 was found to be 6.35 µM.

`CCOC(=O)c1cc([Se]c2ccccc2)c2ccccc2n1` yielded an IC50 of 57.5 µM.

System in another test: not listed separately
The experiment in a line: Inhibition of Leishmania mexicana rCPB3.0 H84Y mutant using Z-FR-AMC as substrate by spectrofluorometric analysis.
Conditions: not given
`CCOC(=O)c1cc([Se]c2ccc3cc(OC)ccc3c2)c2cc(Cl)ccc2n1` registered an IC50 of 7.25 µM.

Take `CCOC(=O)c1cc([Se]c2ccccc2)c2ccccc2n1`: the IC50 was found to be 25.3 µM.
